Our source for the Kd values is article PMC2712759, “Hsp70 Chaperones and Type I PRMTs Are Sequestered at Intranuclear Inclusions Caused by Polyalanine Expansions in PABPN1” (PLoS ONE, 2009).

Experiment [1] deals with T1, PABPN1 (Homo sapiens, UniProt Q86U42).
T1 construct: recombinant full-length (306 aa for normal PABPN1, 10-Ala tract, N-terminus M-(A)10-GAAGGRG); details in supplement S1
T1 sequence (Q86U42 1-306): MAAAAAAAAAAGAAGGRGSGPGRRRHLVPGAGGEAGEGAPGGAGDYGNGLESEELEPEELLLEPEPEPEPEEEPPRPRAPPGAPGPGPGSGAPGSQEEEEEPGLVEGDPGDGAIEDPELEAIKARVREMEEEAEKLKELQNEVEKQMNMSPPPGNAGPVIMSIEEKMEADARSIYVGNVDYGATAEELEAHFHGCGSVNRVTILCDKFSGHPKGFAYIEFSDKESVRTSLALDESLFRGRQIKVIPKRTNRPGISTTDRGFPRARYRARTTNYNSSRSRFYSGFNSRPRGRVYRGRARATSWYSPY
Description: ANS fluorescence titration. It is filed as binding.

Experiment [2] addresses T2, PABPN1 (Homo sapiens, UniProt Q86U42, INS11AAAAAAA).
T2 construct: recombinant full-length (306 aa for normal PABPN1, 10-Ala tract, N-terminus M-(A)10-GAAGGRG); details in supplement S1
T2 sequence (Q86U42 with tags, fused parts or gaps INS11AAAAAAA): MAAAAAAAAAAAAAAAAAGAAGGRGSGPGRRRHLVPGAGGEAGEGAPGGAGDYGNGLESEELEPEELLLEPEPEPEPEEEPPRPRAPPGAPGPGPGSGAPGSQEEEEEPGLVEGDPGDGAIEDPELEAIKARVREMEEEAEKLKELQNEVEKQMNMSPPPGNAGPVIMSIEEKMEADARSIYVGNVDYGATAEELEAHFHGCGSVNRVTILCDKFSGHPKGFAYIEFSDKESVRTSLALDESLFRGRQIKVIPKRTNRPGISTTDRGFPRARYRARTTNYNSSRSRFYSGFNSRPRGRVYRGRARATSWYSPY
The experiment in a line: ANS fluorescence titration. Type of experiment: binding.

Structures are written as SMILES. pKd: −log10 of the molar value.

On to `O=S(=O)(O)c1cccc2cccc(Nc3ccccc3)c12` [1-Anilino naphthalene-8-sulfonic acid], for which the pKd on PABPN1 [1] was 4.12; at PABPN1 [2] it was 4.38.
